Assay results: US20210369623A1, “COMPOSITION THAT FORMS LIQUID CRYSTALLINE PARTICLES” (Zeenar Enterprises Pty Ltd, priority 2018, published 2021)

Tests used:
[1] = SAXS of mixtures of GMO and excipient/active ingredient immersed in PBS (liquid crystal phase and lattice size); format: physicochemical; design: lamella phase lattice size: unit not given here; conditions: for Threshold (minimum amount of ingredient required to increase the water channel size): % w/w of ingredient in GMO; for Phase structure: PBS buffer pH 6.8, ~22° C.; for Concentration at which V2(Pn3m) lattice size increased / Concentration of transformation/transition in liquid crystalline structure: concentration in GMO; for Concentration of transformation/transition in liquid crystalline structure: change to structure with larger water channels (e.g. Im3m)
Experimental: The samples were then mixed via a roller mixer at ˜10 RPM at 40° C. for at least 3 days.
One week prior to SAXS experiment, 100 mg samples were loaded into a transparent polystyrene 96 well plate (Nunc™) and immersed in 200 μL of PBS buffer (pH 6.8). The samples were stored away from light at ambient temperature, to allow the samples to reach equilibrium.
The SAXS/WAXS beamline at Australian Synchrotron, Melbourne, Australia was used to determine the liquid crystalline nanostructure in the samples.
A custom-designed plate holder was used to mount the samples plate directly onto the SAXS/WAXS beamline. Scans were automated using a pre-loaded set of position variables based on the well positions within the plate, the exposure time was 5 sec.
Data were obtained at ambient temperature (˜22° C.). […] The 2-D diffraction images were recorded on a Pilatus 1M detector and radially integrated using the in-house software “ScatterBrain”.

[2] = cited from earlier work
[3] = In vitro release/permeation through porcine buccal mucosa in modified Ussing chamber (rosuvastatin, oxycodone, atorvastatin); conditions: not yet tested
[4] = Concentration in GMO 1%, first value of the cell (first phase listed)
[5] = Concentration in GMO 5%, first value of the cell (first phase listed)
[6] = Concentration in GMO 10%, first value of the cell (first phase listed)
[7] = Concentration in GMO 10%, second value of the cell (second phase)
[8] = Concentration in GMO 15%, first value of the cell (first phase listed)
[9] = Concentration in GMO 15%, second value of the cell (second phase)
[10] = Concentration in GMO 20%, first value of the cell (first phase listed)

| Phase structure ([1]; Concentration in GMO 1%) | Lattice size [1, 4] | Phase structure ([1]; Concentration in GMO 5%) | Lattice size [1, 5] | Phase structure ([1]; Concentration in GMO 10%) | Lattice size [1, 6] | Lattice size [1, 7] | Phase structure ([1]; Concentration in GMO 15%) | Lattice size [1, 8] | Compound | Threshold (minimum amount of ingredient required to increase the water channel size) [1] | Concentration at which V2(Pn3m) lattice size increased [1] | Concentration of transformation/transition in liquid crystalline structure [1] | other results |
| --- | --- | --- | --- | --- | --- | --- | --- | --- | --- | --- | --- | --- | --- |
| – | – | – | – | – | – | – | – | – | Magnesium stearate | – | – | – | V2(Pn3m) lattice size ([1]; ingredient 1-20% in GMO): 93 to 95 Å; lamella phase lattice size ([1]; ingredient at 5-30% in GMO): 50; H2 lattice size ([1]; ingredient at 30% in GMO): 62 nm |
| V2(Pn3m) | 93.1 Å | V2(Pn3m) | 99.2 Å | V2(Pn3m) | 105 Å | – | V2(Pn3m) | 101 Å | CC(C)c1c(C(=O)Nc2ccccc2)c(-c2ccccc2)c(-c2ccc(F)cc2)n1CC[C@@H](O)C[C@@H](O)CC(=O)O [Atorvastatin] | 8-10% | 10-35% | – | Phase structure ([1]; Concentration in GMO 20%): V2(Pn3m); Lattice size [1, 10]: 103 Å; Phase structure ([1]; Concentration in GMO 25%): V2(Pn3m); Lattice size ([1]; Concentration in GMO 25%, first value of the cell (first phase listed)): 102 Å; Phase structure ([1]; Concentration in GMO 35%): V2(Pn3m); Lattice size ([1]; Concentration in GMO 35%, first value of the cell (first phase listed)): 105 Å |
| – | – | – | – | – | – | – | – | – | OC[C@@H](O)[C@@H](O)[C@H](O)[C@@H](O)CO [Sorbitol] | – | – | – | V2(Pn3m) lattice size ([1]; ingredient 1 to 50% in GMO): 83 to 92 Å; V2(Ia3d) lattice size ([1]; ingredient at 1% in GMO, blended with V2(Pn3m)): about 138 nm; impact on the GMO cubic structure formed ([1]; tablet excipient mixed with GMO): minimal impact |
| V2(Pn3m) | 84.2 Å | V2(Pn3m) | 109 Å | V2(Pn3m) | 109 Å | 131 Å | V2(Pn3m) + V2(Im3m) | 122 Å | CC(C)c1nc(N(C)S(C)(=O)=O)nc(-c2ccc(F)cc2)c1/C=C/[C@@H](O)C[C@@H](O)CC(=O)O [Rosuvastatin] | A threshold of 3-5% or about 5%. Transformation in structure | Rosuvastatin - V2(Pn3m) lattice size increased at 5-15%. | – | Lattice size [1, 9]: 148 Å; logP [2]: 1.92 |
| V2(Pn3m) | 95.4 Å | V2(Pn3m) | 116 Å | V2(Pn3m) | 133 Å | – | – | – | CCCCCCCCCCCCOS(=O)(=O)[O-].[Na+] [SLS, sodium lauryl sulphate] | 3-5% or about 5%. SLS was also tested in SBT137 and shown to increase | – | with large water channels. Transition at about 50%. | – |
| – | – | – | – | – | – | – | – | – | CNCC(O)c1ccc(O)c(O)c1 (stereo not drawn) [Adrenaline] | – | – | – | logP [2]: −0.5 to −1.4; passage through the porcine oral mucosa in a Ussing chamber [3]: expected to pass through the porcine oral mucosa |
| V2(Pn3m) | 93.1 Å | V2(Pn3m) | 103 Å | V2(Pn3m) + other | 113 Å | – | – | – | O=S(=O)([O-])NC1CCCCC1.[Na+] [Sodium cyclamate] | 3-5% | 5-10% | – | – |
| V2(Pn3m) | 91.9 Å | V2(Pn3m) | 97.9 Å | V2(Pn3m) | 106 Å | 139 Å | – | – | CCCCCCCC/C=C\CCCCCCCC(=O)OCCOCC(OCCO)C1OCC(OCCO)C1OCCO (stereo not drawn) [Tween 80] | size from an ODT. A threshold of 8-10% or about 10%. | Tween 80 - V2(Pn3m) lattice size increased at 10-20%. | Transformation in structure by about 20%. | Phase structure ([1]; Concentration in GMO 20%): V2(Pn3m) + V2(Im3m); Lattice size [1, 10]: 138 Å; Lattice size ([1]; Concentration in GMO 20%, second value of the cell (second phase)): 172 Å |
| V2(Pn3m) | 95.4 Å | V2(Pn3m) | 107 Å | V2(Pn3m) + others | 120 Å | – | – | – | O=C1NS(=O)(=O)c2ccccc21.[Na] [Saccharin sodium] | 3-5% | 5-10% | – | – |

| Compound | Phase structure ([1]; Concentration in GMO 1%) | Lattice size [1, 4] | Phase structure ([1]; Concentration in GMO 5%) | Lattice size [1, 5] | Phase structure ([1]; Concentration in GMO 10%) | Lattice size [1, 6] | Lattice size [1, 7] | Phase structure ([1]; Concentration in GMO 15%) | Lattice size [1, 8] | Threshold (minimum amount of ingredient required to increase the water channel size) [1] | Concentration at which V2(Pn3m) lattice size increased [1] | Concentration of transformation/transition in liquid crystalline structure [1] | other results |
| --- | --- | --- | --- | --- | --- | --- | --- | --- | --- | --- | --- | --- | --- |
| Ibuprofen lysine | V2(Pn3m) | 88.9 Å | V2(Pn3m) | 105 Å | V2(Pn3m) + V2(Ia3d) | 131 Å | 189 Å | Lα + V2(Ia3d) | 80.7 Å | 3-5% | 5-10% | Transformation in structure by about 10%. | Lattice size [1, 9]: 198 Å |
